According to ChEMBL document CHEMBL3885881, “DrugMatrix”:

Species: Rattus norvegicus
Assay: DrugMatrix - Regimen: Daily Repeat
Assay type: toxicity, organism-based, Sprague-Dawley
Design: regimen Daily Repeat, gender Male, age 6-8 weeks
Conditions: in vivo, sc, route subcutaneous, […]; for ABSOLUTE BASOPHIL / ABSOLUTE EOSINOPHIL / ABSOLUTE LYMPHOCYTE / ABSOLUTE MONOCYTE / ABSOLUTE SEGMENTED NEUTROPHIL / BASOPHIL / EOSINOPHIL / ERYTHROCYTE COUNT / HEMATOCRIT / HEMOGLOBIN / LEUKOCYTE COUNT / LYMPHOCYTE / MEAN CORPUSCULAR HEMOGLOBIN / MEAN CORPUSCULAR VOLUME / MONOCYTE / NEUTROPHIL / NUCLEATED RED BLOOD CELLS / PLATELET COUNT: tissue Blood; for ALANINE AMINOTRANSFERASE / ALBUMIN / ALKALINE PHOSPHATASE / ASPARTATE AMINOTRANSFERASE / BLOOD UREA NITROGEN / CARBON DIOXIDE / CHLORIDE / CHOLESTEROL / CREATINE PHOSPHOKINASE / CREATININE / GLUCOSE / LACTATE DEHYDROGENASE / LIPASE / PHOSPHORUS / POTASSIUM / SODIUM / TOTAL BILIRUBIN / TOTAL PROTEIN / URIC ACID: tissue Plasma
[1] = 0 mg/kg, 72 h, dose level Control, time 3 day
[2] = 0 mg/kg, 120 h, dose level Control, time 5 day
[3] = 50 mg/kg, 72 h, dose level Low, time 3 day

## CCCCCCCCc1ccc(O)cc1 [4-OCTYLPHENOL]
[1]
  ABSOLUTE BASOPHIL: 0 CELLS/uL
  ABSOLUTE EOSINOPHIL: 0 CELLS/uL
  ABSOLUTE LYMPHOCYTE: 9782.33 CELLS/uL
  ABSOLUTE MONOCYTE: 114.67 CELLS/uL
  ABSOLUTE SEGMENTED NEUTROPHIL: 753 CELLS/uL
  BASOPHIL: 0%
  EOSINOPHIL: 0%
  ERYTHROCYTE COUNT: 5.14 x10E6/uL
  HEMATOCRIT: 32.12%
  HEMOGLOBIN: 13.13 G/DL
  LEUKOCYTE COUNT: 10.65 x10E3/uL
  LYMPHOCYTE: 91.83%
  MEAN CORPUSCULAR HEMOGLOBIN: 25.83 pg
  MEAN CORPUSCULAR VOLUME: 62.43 fL
  MONOCYTE: 1%
  NEUTROPHIL: 7.17%
  NUCLEATED RED BLOOD CELLS: 0.17 /100WBC
  PLATELET COUNT: 657.83 x10E3/uL
  ALANINE AMINOTRANSFERASE: 60.33 u/L
  ALBUMIN: 3.83 G/DL
  ALKALINE PHOSPHATASE: 366.33 u/L
  ASPARTATE AMINOTRANSFERASE: 104.5 u/L
  BLOOD UREA NITROGEN: 12.33 mg/dL
  CARBON DIOXIDE: 23.17 mmol/L
  CHLORIDE: 96.67 MEQ/L
  CHOLESTEROL: 73.17 mg/dL
  CREATINE PHOSPHOKINASE: 545.83 u/L
  CREATININE: 0.26 mg/dL
  GLUCOSE: 144.33 mg/dL
  LACTATE DEHYDROGENASE: 147.5 u/L
  LIPASE: 9.33 u/L
  PHOSPHORUS: 10.83 mg/dL
  POTASSIUM: 5.68 MEQ/L
  SODIUM: 138.83 MEQ/L
  TOTAL BILIRUBIN: 0.17 mg/dL
  TOTAL PROTEIN: 5.42 G/DL
  URIC ACID: 0.65 mg/dL
[2]
  ABSOLUTE BASOPHIL: 0 CELLS/uL
  ABSOLUTE EOSINOPHIL: 43.33 CELLS/uL
  ABSOLUTE LYMPHOCYTE: 12883 CELLS/uL
  ABSOLUTE MONOCYTE: 166.83 CELLS/uL
  ABSOLUTE SEGMENTED NEUTROPHIL: 1290.17 CELLS/uL
  BASOPHIL: 0%
  EOSINOPHIL: 0.33%
  ERYTHROCYTE COUNT: 5.79 x10E6/uL
  HEMATOCRIT: 36.37%
  HEMOGLOBIN: 14.17 G/DL
  LEUKOCYTE COUNT: 14.38 x10E3/uL
  LYMPHOCYTE: 89.17%
  MEAN CORPUSCULAR HEMOGLOBIN: 24.48 pg
  MEAN CORPUSCULAR VOLUME: 62.83 fL
  MONOCYTE: 1.17%
  NEUTROPHIL: 9.33%
  NUCLEATED RED BLOOD CELLS: 0.5 /100WBC
  PLATELET COUNT: 1267.33 x10E3/uL
  ALANINE AMINOTRANSFERASE: 53.5 u/L
  ALBUMIN: 3.82 G/DL
  ALKALINE PHOSPHATASE: 342.33 u/L
  ASPARTATE AMINOTRANSFERASE: 83.67 u/L
  BLOOD UREA NITROGEN: 13.17 mg/dL
  CARBON DIOXIDE: 28.17 mmol/L
  CHLORIDE: 101.5 MEQ/L
  CHOLESTEROL: 70.83 mg/dL
  CREATINE PHOSPHOKINASE: 656.67 u/L
  CREATININE: 0.17 mg/dL
  GLUCOSE: 171.33 mg/dL
  LACTATE DEHYDROGENASE: 169 u/L
  LIPASE: 9.17 u/L
  PHOSPHORUS: 12.88 mg/dL
  POTASSIUM: 6.54 MEQ/L
  SODIUM: 141.2 MEQ/L
  TOTAL BILIRUBIN: 0.18 mg/dL
  TOTAL PROTEIN: 5.68 G/DL
  URIC ACID: 2.02 mg/dL
[3]
  ABSOLUTE BASOPHIL: 0 CELLS/uL
  ABSOLUTE EOSINOPHIL: 58 CELLS/uL
  ABSOLUTE LYMPHOCYTE: 8002.33 CELLS/uL
  ABSOLUTE MONOCYTE: 124.67 CELLS/uL
  ABSOLUTE SEGMENTED NEUTROPHIL: 648.33 CELLS/uL
  BASOPHIL: 0%
  EOSINOPHIL: 0.67%
  ERYTHROCYTE COUNT: 5.33 x10E6/uL
  HEMATOCRIT: 34.07%
  HEMOGLOBIN: 13.23 G/DL
  LEUKOCYTE COUNT: 8.83 x10E3/uL
  LYMPHOCYTE: 90%
  MEAN CORPUSCULAR HEMOGLOBIN: 24.83 pg
  MEAN CORPUSCULAR VOLUME: 63.87 fL
  MONOCYTE: 1.67%
  NEUTROPHIL: 7.67%
  NUCLEATED RED BLOOD CELLS: 0 /100WBC
  PLATELET COUNT: 876 x10E3/uL
  ALANINE AMINOTRANSFERASE: 50.33 u/L
  ALBUMIN: 3.9 G/DL
  ALKALINE PHOSPHATASE: 340 u/L
  ASPARTATE AMINOTRANSFERASE: 88 u/L
  BLOOD UREA NITROGEN: 10 mg/dL
  CARBON DIOXIDE: 24.67 mmol/L
  CHLORIDE: 94 MEQ/L
  CHOLESTEROL: 67.33 mg/dL
  CREATINE PHOSPHOKINASE: 672.33 u/L
  CREATININE: 0.22 mg/dL
  GLUCOSE: 130.67 mg/dL
  LACTATE DEHYDROGENASE: 143.33 u/L
  LIPASE: 9.67 u/L
  PHOSPHORUS: 11.07 mg/dL
  POTASSIUM: 6.18 MEQ/L
  SODIUM: 136.97 MEQ/L
  TOTAL BILIRUBIN: 0.1 mg/dL
  TOTAL PROTEIN: 5.4 G/DL
  URIC ACID: 0.83 mg/dL
